In ChEMBL document CHEMBL3994622, “Design and synthesis of new RAF kinase-inhibiting antiproliferative quinoline derivatives. Part 2: Diarylurea derivatives” (Eur J Med Chem, 2017):

Assays:
Format in all cases: functional
NCI-H23 = assay: Growth inhibition of human NCI-H23 cells assessed as cell growth at 0.01 uM incubated for 48 hrs by sulforhodamine B assay relative to control; settings: NCI-H23, 48 h, read-out: Activity
RXF 393 [1] = assay: Growth inhibition of human RXF393 cells assessed as cell growth at 100 uM incubated for 48 hrs by sulforhodamine B assay relative to control; settings: RXF 393, 48 h, read-out: Activity
ACHN = assay: Growth inhibition of human ACHN cells assessed as cell growth at 0.01 uM incubated for 48 hrs by sulforhodamine B assay relative to control; settings: read-out: Activity
OVCAR-4 = assay: Growth inhibition of human OVCAR4 cells assessed as cell growth at 0.01 uM incubated for 48 hrs by sulforhodamine B assay relative to control; settings: OVCAR-4, 48 h, read-out: Activity
HCT-116 = assay: Growth inhibition of human HCT116 cells assessed as cell growth at 0.01 uM incubated for 48 hrs by sulforhodamine B assay relative to control; settings: HCT-116, 48 h, read-out: Activity
HT-29 = assay: Growth inhibition of human HT-29 cells assessed as cell growth at 10 uM incubated for 48 hrs by sulforhodamine B assay relative to control; settings: HT-29, 48 h, read-out: Activity
UACC-62 = assay: Growth inhibition of human UACC62 cells assessed as cell growth at 100 uM incubated for 48 hrs by sulforhodamine B assay relative to control; settings: UACC-62, 48 h, read-out: Activity
SF-295 = assay: Growth inhibition of human SF295 cells assessed as cell growth at 100 uM incubated for 48 hrs by sulforhodamine B assay relative to control; settings: SF-295, 48 h, read-out: Activity
PC-3 = assay: Growth inhibition of human PC3 cells assessed as cell growth at 1 uM incubated for 48 hrs by sulforhodamine B assay relative to control; settings: PC-3, 48 h, read-out: Activity
MDA-MB-435 = assay: Growth inhibition of human MDA-MB-435 cells assessed as cell growth at 0.01 uM incubated for 48 hrs by sulforhodamine B assay relative to control; settings: MDA-MB-435, 48 h, read-out: Activity
SW-620 [2] = assay: Growth inhibition of human SW620 cells assessed as cell growth at 1 uM incubated for 48 hrs by sulforhodamine B assay relative to control; settings: SW-620, 48 h, read-out: Activity
K562 = assay: Growth inhibition of human K562 cells assessed as cell growth at 1 uM incubated for 48 hrs by sulforhodamine B assay relative to control; settings: K562, 48 h, read-out: Activity
OVCAR-5 [3] = assay: Growth inhibition of human OVCAR5 cells assessed as cell growth at 0.1 uM incubated for 48 hrs by sulforhodamine B assay relative to control; settings: OVCAR-5, 48 h, read-out: Activity
MDA-MB-231 [4] = assay: Growth inhibition of human MDA-MB-231 cells assessed as cell growth at 100 uM incubated for 48 hrs by sulforhodamine B assay relative to control; settings: MDA-MB-231, 48 h, read-out: Activity
M14 = assay: Growth inhibition of human M14 cells assessed as cell growth at 1 uM incubated for 48 hrs by sulforhodamine B assay relative to control; settings: M14, 48 h, read-out: Activity
A549 [5] = assay: Growth inhibition of human A549/ATCC cells assessed as cell growth at 0.1 uM incubated for 48 hrs by sulforhodamine B assay relative to control; settings: A549, 48 h, read-out: Activity
OVCAR-5 [6] = assay: Growth inhibition of human OVCAR5 cells assessed as cell growth at 1 uM incubated for 48 hrs by sulforhodamine B assay relative to control; settings: OVCAR-5, 48 h, read-out: Activity
HCT-15 = assay: Growth inhibition of human HCT15 cells assessed as cell growth at 0.1 uM incubated for 48 hrs by sulforhodamine B assay relative to control; settings: HCT-15, 48 h, read-out: Activity
A549 [7] = assay: Growth inhibition of human A549/ATCC cells assessed as cell growth at 0.3 uM incubated for 48 hrs by sulforhodamine B assay relative to control; settings: A549, 48 h, read-out: Activity
MDA-MB-231 [8] = assay: Growth inhibition of human MDA-MB-231 cells assessed as cell growth at 3 uM incubated for 48 hrs by sulforhodamine B assay relative to control; settings: MDA-MB-231, 48 h, read-out: Activity
SW-620 [9] = assay: Growth inhibition of human SW620 cells assessed as cell growth at 0.03 uM incubated for 48 hrs by sulforhodamine B assay relative to control; settings: SW-620, 48 h, read-out: Activity
BT-549 = assay: Growth inhibition of human BT549 cells assessed as cell growth at 3 uM incubated for 48 hrs by sulforhodamine B assay relative to control; settings: BT-549, 48 h, read-out: Activity
SNB-75 = assay: Growth inhibition of human SNB75 cells assessed as cell growth at 3 uM incubated for 48 hrs by sulforhodamine B assay relative to control; settings: SNB-75, 48 h, read-out: Activity
CAKI-1 = assay: Growth inhibition of human Caki1 cells assessed as cell growth at 0.3 uM incubated for 48 hrs by sulforhodamine B assay relative to control; settings: CAKI-1, 48 h, read-out: Activity
RXF 393 [10] = assay: Growth inhibition of human RXF393 cells assessed as cell growth at 30 uM incubated for 48 hrs by sulforhodamine B assay relative to control; settings: RXF 393, 48 h, read-out: Activity
NCI-H522 = assay: Growth inhibition of human NCI-H522 cells assessed as cell growth at 0.3 uM incubated for 48 hrs by sulforhodamine B assay relative to control; settings: NCI-H522, 48 h, read-out: Activity
OVCAR-8 [11] = assay: Growth inhibition of human OVCAR8 cells assessed as cell growth at 30 uM incubated for 48 hrs by sulforhodamine B assay relative to control; settings: OVCAR-8, 48 h, read-out: Activity
OVCAR-8 [12] = assay: Growth inhibition of human OVCAR8 cells assessed as cell growth at 3 uM incubated for 48 hrs by sulforhodamine B assay relative to control; settings: OVCAR-8, 48 h, read-out: Activity
Hs-578T = assay: Growth inhibition of human Hs 578T cells assessed as cell growth at 30 uM incubated for 48 hrs by sulforhodamine B assay relative to control; settings: read-out: Activity
MDA-MB-231 [13] = assay: Growth inhibition of human MDA-MB-231 cells assessed as cell growth at 0.3 uM incubated for 48 hrs by sulforhodamine B assay relative to control; settings: MDA-MB-231, 48 h, read-out: Activity
SF-268 = assay: Growth inhibition of human SF268 cells assessed as cell growth at 0.03 uM incubated for 48 hrs by sulforhodamine B assay relative to control; settings: SF-268, 48 h, read-out: Activity
SK-OV-3 = assay: Growth inhibition of human SKOV3 cells assessed as cell growth at 3 uM incubated for 48 hrs by sulforhodamine B assay relative to control; settings: SK-OV-3, 48 h, read-out: Activity
SK-MEL-28 = assay: Growth inhibition of human SK-MEL-28 cells assessed as cell growth at 0.03 uM incubated for 48 hrs by sulforhodamine B assay relative to control; settings: SK-MEL-28, 48 h, read-out: Activity
SN12C = assay: Growth inhibition of human SN12C cells assessed as cell growth at 0.3 uM incubated for 48 hrs by sulforhodamine B assay relative to control; settings: read-out: Activity

Compound	growth at 0.01 µM (NCI-H23) [%]	growth at 100 µM (RXF 393 [1]) [%]	growth at 0.01 µM (ACHN) [%]	growth at 0.01 µM (OVCAR-4) [%]	growth at 0.01 µM (HCT-116) [%]	growth at 10 µM (HT-29) [%]	growth at 100 µM (UACC-62) [%]	growth at 100 µM (SF-295) [%]	growth at 1 µM (PC-3) [%]	growth at 0.01 µM (MDA-MB-435) [%]	growth at 1 µM (SW-620 [2]) [%]	growth at 1 µM (K562) [%]	growth at 0.1 µM (OVCAR-5 [3]) [%]	growth at 100 µM (MDA-MB-231 [4]) [%]	growth at 1 µM (M14) [%]	growth at 0.1 µM (A549 [5]) [%]	growth at 1 µM (OVCAR-5 [6]) [%]	growth at 0.1 µM (HCT-15) [%]	growth at 0.3 µM (A549 [7]) [%]	growth at 3 µM (MDA-MB-231 [8]) [%]	also measured
COc1cc2cc(Oc3ccc(NC(=O)Nc4cc(C(F)(F)F)cc(C(F)(F)F)c4)cc3)c(C)nc2cc1OC	99	-78	94	85	97	-64	-79	-84	27	94	81	32	92	-83	50	99	93	94	–	–	–
Cc1nc2cc(O)c(O)cc2cc1Oc1ccc(NC(=O)Nc2ccc(Cl)c(Cl)c2)cc1	–	–	–	–	–	–	–	–	–	–	–	–	–	–	–	–	–	–	96	41	growth at 0.03 µM (SW-620 [9]): 97%; growth at 3 µM (BT-549): 78%; growth at 3 µM (SNB-75): 83%; growth at 0.3 µM (CAKI-1): 95%; growth at 30 µM (RXF 393 [10]): 7%; growth at 0.3 µM (NCI-H522): 93%; growth at 30 µM (OVCAR-8 [11]): 1%; growth at 3 µM (OVCAR-8 [12]): 66%; growth at 30 µM (Hs-578T): 16%; growth at 0.3 µM (MDA-MB-231 [13]): 118%; growth at 0.03 µM (SF-268): 104%; growth at 3 µM (SK-OV-3): 103%; growth at 0.03 µM (SK-MEL-28): 87%; growth at 0.3 µM (SN12C): 105%
COc1cc2cc(Oc3ccc(NC(=O)Nc4ccc(Cl)c(Cl)c4)cc3)c(C)nc2cc1OC	98	-65	101	95	89	-49	-63	-56	67	94	107	88	104	-100	83	94	116	102	–	–	–
COc1cc2cc(Oc3ccc(NC(=O)Nc4ccc(Cl)c(C(F)(F)F)c4)cc3)c(C)nc2cc1OC	–	–	–	–	–	–	–	–	–	–	–	–	–	–	–	–	–	–	89	-29	growth at 0.03 µM (SW-620 [9]): 100%; growth at 3 µM (BT-549): 12%; growth at 3 µM (SNB-75): 10%; growth at 0.3 µM (CAKI-1): 87%; growth at 30 µM (RXF 393 [10]): -80%; growth at 0.3 µM (NCI-H522): 85%; growth at 30 µM (OVCAR-8 [11]): -32%; growth at 3 µM (OVCAR-8 [12]): 6%; growth at 30 µM (Hs-578T): -53%; growth at 0.3 µM (MDA-MB-231 [13]): 87%; growth at 0.03 µM (SF-268): 91%; growth at 3 µM (SK-OV-3): 17%; growth at 0.03 µM (SK-MEL-28): 98%; growth at 0.3 µM (SN12C): 94%
